Laboratory results as given in BindingDB's records for PubMed 35176561 (Shenyang Pharmaceutical University, 2022).

Target: Amyloid-beta precursor protein (Homo sapiens, UniProt P05067)
Assay: Inhibition of amyloid beta 42 (unknown origin) secretion

Amyloid-beta precursor protein, sequence (P05067 whole entry): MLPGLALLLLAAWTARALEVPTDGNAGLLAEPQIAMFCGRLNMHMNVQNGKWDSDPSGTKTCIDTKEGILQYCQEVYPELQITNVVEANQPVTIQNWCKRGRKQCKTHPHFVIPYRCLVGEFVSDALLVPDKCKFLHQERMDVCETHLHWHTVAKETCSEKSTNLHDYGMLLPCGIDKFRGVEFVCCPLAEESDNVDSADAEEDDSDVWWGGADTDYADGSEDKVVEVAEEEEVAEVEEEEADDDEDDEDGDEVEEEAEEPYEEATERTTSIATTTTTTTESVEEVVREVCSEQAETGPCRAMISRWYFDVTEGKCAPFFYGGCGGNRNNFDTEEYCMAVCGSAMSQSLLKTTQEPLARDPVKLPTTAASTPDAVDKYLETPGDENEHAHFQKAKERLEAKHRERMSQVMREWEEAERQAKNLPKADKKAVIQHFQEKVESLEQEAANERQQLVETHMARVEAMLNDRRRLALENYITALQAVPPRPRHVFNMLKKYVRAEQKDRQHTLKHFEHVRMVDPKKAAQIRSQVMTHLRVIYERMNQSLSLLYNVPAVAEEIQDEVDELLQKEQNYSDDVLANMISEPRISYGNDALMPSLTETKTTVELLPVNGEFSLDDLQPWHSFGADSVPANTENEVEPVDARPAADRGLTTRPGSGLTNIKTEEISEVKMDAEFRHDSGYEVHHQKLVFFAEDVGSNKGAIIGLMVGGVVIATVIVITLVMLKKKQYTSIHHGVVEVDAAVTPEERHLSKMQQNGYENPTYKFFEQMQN

Row | SMILES | IC50 [nM]
1 | COc1nc(-c2cc(C)c(N[C@@H](C)c3cc(F)cc(F)c3)nn2)ccc1-n1cnc(C)c1 | 4.1
2 | COc1nc(-c2cc(C)c(N[C@@H](C)c3cc(F)c(F)c(F)c3)nn2)ccc1-n1cnc(C)c1 | 5.3
